For series [1] the following is noted: rcm bond, DCE.
The conditions of series [2]: rcm bond, Hoveyda-Grubbs II, DCE.
For series [3], the system named is recombinant NL-Rluc virus. The experiment in a line: Inhibition of HIV replication (NL-RLuc virus in MT-2 cells, luciferase readout). The following applies: 5 days of incubation, 10% FBS. It is filed as cell-based.
Where [4] appears, read: Human immunodeficiency virus 1, MT2, 120 h.

Where two headings read alike, the source gives them in different places.

With `COC(=O)[C@@H](OC(C)(C)C)c1c(C)nc2cc3nn2c1-c1cc(F)c2c(c1)N(CC=CCCc1ccccc1-c1cccc-3c1)CCO2`, in series [1] (from C=CCCc1ccccc1-c1cccc(-c2cc3nc(C)c([C@H](OC(C)(C)C)C(=O)OC)c(-c4cc(F)c5c(c4)N(CC=C)CCO5)n3n2)c1, 18-membered ring, Hoveyda-Grubbs II, 8.3 mM, 70.0 °C, 18.0 h), the ring closure, isolated yield was determined as 54.5%. As to `COC(=O)[C@@H](OC(C)(C)C)c1c(C)nc2cc3nn2c1-c1ccc2c(c1)C(CC=CCOc1ccccc1-c1cccc-3c1)CCO2` (stereo partly shown), in series [1] (from C=CCOc1ccccc1-c1cccc(-c2cc3nc(C)c([C@H](OC(C)(C)C)C(=O)OC)c(-c4ccc5c(c4)C(CC=C)CCO5)n3n2)c1, 18-membered ring, Hoveyda-Grubbs II, 2.06 mM, 70.0 °C, 3.0 h), the ring closure, isolated yield was 84%. `COC(=O)[C@@H](OC(C)(C)C)c1c(C)nc2cc3nn2c1-c1ccc2c(c1Cl)N(CC=CCCCOc1ccccc1-c1cccc-3c1)CCO2` displayed a ring closure, isolated yield in series [1] (from C=CCCCOc1ccccc1-c1cccc(-c2cc3nc(C)c([C@H](OC(C)(C)C)C(=O)OC)c(-c4ccc5c(c4Cl)N(CC=C)CCO5)n3n2)c1, 20-membered ring, Hoveyda-Grubbs II, 27.0 mM, 50.0 °C, 3.0 h) of 53.4%. For `COC(=O)[C@@H](OC(C)(C)C)c1c(C)nc2cc3nn2c1-c1ccc2c(c1Cl)N(CC=CCCc1ccccc1-c1cccc-3c1)CCO2`, in series [2] (from C=CCCc1ccccc1-c1cccc(-c2cc3nc(C)c([C@H](OC(C)(C)C)C(=O)OC)c(-c4ccc5c(c4Cl)N(CC=C)CCO5)n3n2)c1, 18-membered ring, 28.0 mM, 50.0 °C, 1.0 h), the ring closure, yield after HPLC was 26.5%. This compound yielded a ring closure, isolated yield in series [1] (from C=CCCc1ccccc1-c1cccc(-c2cc3nc(C)c([C@H](OC(C)(C)C)C(=O)OC)c(-c4ccc5c(c4Cl)N(CC=C)CCO5)n3n2)c1, 18-membered ring, Hoveyda-Grubbs II, 70.0 °C, 4.0 h) of 73%. `COC(=O)[C@@H](OC(C)(C)C)c1c(C)nc2cc3nn2c1-c1ccc2c(c1Cl)N(CC=CCOc1cccc(c1)-c1cccc-3c1)CCO2`: the ring closure, yield after HPLC in series [2] (from C=CCOc1cccc(-c2cccc(-c3cc4nc(C)c([C@H](OC(C)(C)C)C(=O)OC)c(-c5ccc6c(c5Cl)N(CC=C)CCO6)n4n3)c2)c1, 19-membered ring, then NaOH, 29.0 mM, 50.0 °C, 5.0 h, 2 steps) was determined as 26.6%. In turn, `COC(=O)[C@@H](OC(C)(C)C)c1c(C)nc2cc3nn2c1N1CCC(C)(CC1)COCC=CCCc1ccccc1-c1cccc-3c1` registered a ring closure, isolated yield in series [1] (from C=CCCc1ccccc1-c1cccc(-c2cc3nc(C)c([C@H](OC(C)(C)C)C(=O)OC)c(N4CCC(C)(COCC=C)CC4)n3n2)c1, 20-membered ring, Hoveyda-Grubbs II (10 mol%), 1.23 mM, 70.0 °C, 3.0 h) of 98%. `COC(=O)[C@@H](OC(C)(C)C)c1c(C)nc2cc3nn2c1N1CCC(C)(CC1)OCC=CC(C)Oc1ccccc1-c1cccc-3c1` (stereo partly shown) displayed a ring closure, yield after HPLC in series [2] (from C=CCOC1(C)CCN(c2c([C@H](OC(C)(C)C)C(=O)OC)c(C)nc3cc(-c4cccc(-c5ccccc5OC(C)C=C)c4)nn23)CC1, 19-membered ring, 1.28 mM, 2.0 h) of 98%. `COC(=O)[C@@H](OC(C)(C)C)c1c(C)nc2cc3nn2c1N1CCC(C)(CC1)OCC=CC[C@@H](C)Oc1ccccc1-c1cccc-3c1` came in with a ring closure, isolated yield in series [1] (from C=CCOC1(C)CCN(c2c([C@H](OC(C)(C)C)C(=O)OC)c(C)nc3cc(-c4cccc(-c5ccccc5O[C@H](C)CC=C)c4)nn23)CC1, 20-membered ring, Hoveyda-Grubbs II, 1.43 mM, 2.0 h) of 100%. In series [1] (from C=CCOC1(C)CCN(c2c([C@H](OC(C)(C)C)C(=O)OC)c(C)nc3cc(-c4cccc(-c5cc(F)ccc5O[C@@H](C)CC=C)c4)nn23)CC1, 20-membered ring, Hoveyda-Grubbs II (20 mol%), then NaBH4/MeOH, 5.0 mM, 80.0 °C, 1.5 h, 2 steps), `COC(=O)[C@@H](OC(C)(C)C)c1c(C)nc2cc3nn2c1N1CCC(C)(CC1)OCC=CC[C@H](C)Oc1ccc(F)cc1-c1cccc-3c1` came in with a ring closure, isolated yield of 38%.

Turning to `COC(=O)[C@@H](OC(C)(C)C)c1c(C)nc2cc3nn2c1N1CCC(C)(CC1)OCC=CC[C@H](C)Oc1ccccc1-c1cccc-3c1`, the ring closure, isolated yield in series [1] (from C=CCOC1(C)CCN(c2c([C@H](OC(C)(C)C)C(=O)OC)c(C)nc3cc(-c4cccc(-c5ccccc5O[C@@H](C)CC=C)c4)nn23)CC1, 20-membered ring, Hoveyda-Grubbs II, 1.5 mM, 2.0 h) was found to be 70%. The EC50 is the concentration at which the effect is half-maximal. For `CCC(C)(C)O[C@H](C(=O)O)c1c(C)nc2cc3nn2c1N1CCC(C)(CC1)OCCCC[C@H](C)Oc1ccc(C)cc1-c1cccc-3c1` [Example 96, (2S)-2-[(2-Methylbutan-2-yl)oxy]-2-[(22S)-4,17,22,28-tetramethyl-21,27-dioxa-1,5,7,8-tetraazahexacyclo[26.2.2.1^6,^9.1^10,^14.0^2,^7.0^15,^20]tetratriaconta-2,4,6(34),8,10(33), 11, 13, 15 (20),16,18-decaen-3-yl]acetic acid], the EC50 in series [3] (setting [4]) was found to be 36 nM. Turning to `Cc1ccc2c(c1)-c1cccc(c1)-c1cc3nc(C)c([C@H](OC4(C)CCC4)C(=O)O)c(n3n1)N1CCC(C)(CC1)OCCCC[C@H](C)O2` [Example 97, (2S)-2-(1-Methylcyclobutoxy)-2-[(22S)-4,17,22,28-tetramethyl-21,27-dioxa-1,5,7,8-tetraazahexacyclo[26.2.2.1^6,^9.1^10,^14.0^2,^7.0^15,^20]tetratriaconta-2,4, 6(34), 8, 10(33), 11, 13, 15 (20),16,18-decaen-3-yl]acetic acid], the EC50 in series [3] (setting [4]) is 41 nM. As for `Cc1nc2cc3nn2c(c1[C@H](OC(C)(C)C)C(=O)O)N1CCC(C)(CC1)OCCCC[C@H](C)Oc1cccc(F)c1-c1cc-3ccc1F` [Example 99], the EC50 in series [3] (setting [4]) amounted to 20 nM. On the same count and under the same terms, under `Cc1ccc2c(c1)O[C@@H](C)CC=CCOC1(C)CCN(CC1)c1c([C@H](OC(C)(C)C)C(=O)O)c(C)nc3cc(nn13)-c1cccc-2c1` [Example 105, (2S)-2-(tert-Butoxy)-2-[(22S)-4,18,22,28-tetramethyl-21,27-dioxa-1,5,7,8-tetraazahexacyclo[26.2.2.1^6,^9.1^10,^14.0^2,^7.0^15,^20]tetratriaconta-2,4,6(34),8,10(33), 11, 13, 15(20),16,18,24-undecaen-3-yl]acetic acid] stands 28 nM; under `Cc1nc2cc3nn2c(c1[C@H](OC(C)(C)C)C(=O)O)N1CCC(C)(CC1)COCCCCCc1ccccc1-c1cccc-3c1` [Example 106], 89 nM. In the case of “(2S)-2-(tert-Butoxy)-2-[(22S)-4,17,22,29-tetramethyl-21,28-dioxa-1,5,7,8-tetraazahexacyclo[27.2.2.1^6,^9.1^10,^14.0^2,^7.0^15,^20]pentatriaconta-2,4, 6(35), 8, 10(34), 11, 13, 15 (20),16,18-decaen-3-yl]acetic acid [Example 65]”, the EC50 in series [3] (read-out: EC50) came out at 43 nM. Regarding “Methyl (2S)-2-(tert-butoxy)-2-[(23E)-4,27-dimethyl-21,26-dioxa-1,5,7,8-tetraazahexacyclo[25.2.2.1^6,^9.1^10,^14.0^2,^7.0^15,^20]tritriaconta-2,4,6(33),8,10(32),11,13,15(20),16,18,23-undecaen-3-yl]acetate”, the ring closure, isolated yield in series [1] (19-membered ring, Hoveyda-Grubbs II, 1.3 mM) is 100%. Compound “Methyl (2S)-2-(tert-butoxy)-2-[(24E/Z)-4,17,23,28-tetramethyl-21,27-dioxa-1,5,7,8-tetraazahexacyclo[26.2.2.1^6,^9.1^10,^14.0^2,^7.0^15,^20]tetratriaconta-2,4,6(34),8,10(33), 11,13,15 (20),16,18,24-undecaen-3-yl]acetate” had a ring closure, isolated yield in series [1] (20-membered ring, Hoveyda-Grubbs II (7 mol%), 4.0 mM, 85.0 °C) of 70.6%.

Source of the values: patent US8906929B2, “Inhibitors of human immunodeficiency virus replication” (priority 2012, dated 2014).
